pEC50: −log10 of the molar value. Counter-ions that a name gives are not always drawn.
Biological target: T1, human FXR (Homo sapiens, UniProt Q96RI1)
T1 construct: expressed in transfected cells
T1 sequence (Q96RI1 1-486): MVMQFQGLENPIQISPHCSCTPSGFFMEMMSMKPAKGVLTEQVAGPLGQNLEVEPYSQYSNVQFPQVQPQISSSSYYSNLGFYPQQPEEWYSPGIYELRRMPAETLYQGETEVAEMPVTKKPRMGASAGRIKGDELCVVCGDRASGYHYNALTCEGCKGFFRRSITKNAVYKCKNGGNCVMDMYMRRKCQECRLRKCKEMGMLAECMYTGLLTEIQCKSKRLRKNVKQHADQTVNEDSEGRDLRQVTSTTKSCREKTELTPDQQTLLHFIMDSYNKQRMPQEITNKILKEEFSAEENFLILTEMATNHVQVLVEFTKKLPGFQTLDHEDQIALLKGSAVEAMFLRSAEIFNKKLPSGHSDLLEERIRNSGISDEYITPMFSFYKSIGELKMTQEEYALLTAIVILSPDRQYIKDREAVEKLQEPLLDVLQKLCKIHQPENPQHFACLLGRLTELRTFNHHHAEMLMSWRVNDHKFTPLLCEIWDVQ
Assay: FXR reporter assay (cellular FXR activities)
Assay type: cell-based
Conditions: for pEC50: FXR reporter cells, 24 hours incubation, luciferase, read-out: Reporter Cell EC50; for Emax: read-out: Emax (%) (GW4064 Emax = 100%)
Description: FXR reporter assay was performed to measure cellular FXR activities of the compounds in the present invention. FXR reporter cells with high expression level of human FXR were seeded into 96-well cell culture plates, and incubated for 1-2 hours at 37° C. under 5% CO2 atmosphere. The invented compounds diluted in DMSO with various concentrations were added to the 96-well cell culture plates, and they were incubated for 24 hours at 37° C. under 5% CO2 atmosphere. After incubation, we calculate EC50 by using luciferase substrate.

SMILES	pEC50	Emax [%]
CCc1cc(C#Cc2ccc(OCc3c(-c4c(Cl)cccc4Cl)noc3C3CC3)cc2Cl)cc(C(=O)O)c1 [Compound I-65, 3-((2-chloro-4-((5-cyclopropyl-3-(2,6-dichlorophenyl)isoxazol-4-yl)methoxy)phenyl)ethynyl)-5-ethylbenzoic acid]	6.70 to 7.22	92
CC(C)c1cc(C#Cc2ccc(OCc3c(-c4c(Cl)cccc4Cl)noc3C3CC3)cc2Cl)cc(C(=O)O)c1 [Compound I-66, 3-((2-chloro-4-((5-cyclopropyl-3-(2,6-dichlorophenyl)isoxazol-4-yl)methoxy)phenyl)ethynyl)-5-isopropylbenzoic acid]	6.70 to 7.22	92
O=C(O)c1cccc(C#Cc2cc(Cl)c(OCc3c(-c4c(Cl)cccc4Cl)noc3C3CC3)cc2Cl)c1 [Compound I-68, 3-((2,5-dichloro-4-((5-cyclopropyl-3-(2,6-dichlorophenyl)isoxazol-4-yl)methoxy)phenyl)ethynyl)benzoic acid]	< 6.00	96
O=C(O)c1cccc(C#Cc2ccc(OCc3c(-c4c(Cl)cccc4Cl)noc3C3CC3)c(Cl)c2Cl)c1 [Compound I-69, 3-((2,3-dichloro-4-((5-cyclopropyl-3-(2,6-dichlorophenyl)isoxazol-4-yl)methoxy)phenyl)ethynyl)benzoic acid]	6.00 to 6.70	> 100
O=C(O)c1cccc(C#Cc2c(F)cc(OCc3c(-c4c(Cl)cccc4Cl)noc3C3CC3)cc2Cl)c1 [Compound I-70, 3-((2-chloro-4-((5-cyclopropyl-3-(2,6-dichlorophenyl)isoxazol-4-yl)methoxy)-6-fluorophenyl)ethynyl)benzoic acid]	6.70 to 7.22	> 100
Cc1c(N)cc(C#Cc2ccc(OCc3c(-c4c(Cl)cccc4Cl)noc3C3CC3)cc2Cl)cc1C(=O)O [Compound I-71, 3-amino-5-((2-chloro-4-((5-cyclopropyl-3-(2,6-dichlorophenyl)isoxazol-4-yl)methoxy)phenyl)ethynyl)-2-methylbenzoic acid]	6.00 to 6.70	> 100
CCOC(=O)N(C)c1cc(C#Cc2ccc(OCc3c(-c4c(Cl)cccc4Cl)noc3C3CC3)cc2Cl)cc(C(=O)O)c1 [Compound I-75]	7.22 to 7.70	93
CN(C(=O)OC(C)(C)C)c1cc(C#Cc2ccc(OCc3c(-c4c(Cl)cccc4Cl)noc3C3CC3)cc2Cl)cc(C(=O)O)c1 [Compound I-78, 3-((tert-butoxycarbonyl)(methyl)amino)-5-((2-chloro-4-((5-cyclopropyl-3-(2,6-dichlorophenyl)isoxazol-4-yl)methoxy)phenyl)ethynyl)benzoic acid]	7.22 to 7.70	89
O=C(O)c1cc(C#Cc2ccc(OCc3c(-c4c(Cl)cccc4Cl)noc3C3CC3)cc2Cl)cc(N2CCOC2=O)c1 [Compound I-83, 3-((2-chloro-4-((5-cyclopropyl-3-(2,6-dichlorophenyl)isoxazol-4-yl)methoxy)phenyl)ethynyl)-5-(2-oxooxazolidin-3-yl)benzoic acid]	7.22 to 7.70	89
O=C(O)c1cccc(C#Cc2ccc(OCc3c(-c4ccccc4C(F)(F)F)noc3C3CC3)cc2Cl)c1 [Compound I-87, 3-((2-chloro-4-((5-cyclopropyl-3-(2-(trifluoromethyl)phenyl)isoxazol-yl)methoxy)phenyl)ethynyl)benzoic acid]	6.00 to 6.70	> 100
O=C(O)c1cccc(C#Cc2ccc(OCc3c(-c4ccccc4OC(F)(F)F)noc3C3CC3)cc2Cl)c1 [Compound I-88, 3-((2-chloro-4-((5-cyclopropyl-3-(2-(trifluoromethoxy)phenyl)isoxazol-4-yl)methoxy)phenyl)ethynyl)benzoic acid]	6.00 to 6.70	97
O=C(O)c1cc(C#Cc2ccc(OCc3c(-c4c(Cl)cccc4Cl)noc3C3CC3)cc2Cl)c2nc[nH]c2c1 [Compound I-90, 4-((2-chloro-4-((5-cyclopropyl-3-(2,6-dichlorophenyl)isoxazol-4-yl)methoxy)phenyl)ethynyl)-1H-benzo[d]imidazole-6-carboxylic acid]	6.00 to 6.70	75
CN(C)CCn1ccc2c(C#Cc3ccc(OCc4c(-c5c(Cl)cccc5Cl)noc4C4CC4)cc3Cl)cc(C(=O)O)cc21 [Compound I-92, 4-((2-chloro-4-((5-cyclopropyl-3-(2,6-dichlorophenyl)isoxazol-4-yl)methoxy)phenyl)ethynyl)-1-(2-(dimethylamino)ethyl)-1H-indole-6-carboxylic acid]	7.22 to 7.70	87
CC(C)NCCCn1ccc2c(C#Cc3ccc(OCc4c(-c5c(Cl)cccc5Cl)noc4C4CC4)cc3Cl)cc(C(=O)O)cc21 [Compound I-93, 4-((2-chloro-4-((5-cyclopropyl-3-(2,6-dichlorophenyl)isoxazol-4-yl)methoxy)phenyl)ethynyl)-1-(3-(isopropylamino)propyl)-1H-indole-6-carboxylic acid]	6.00 to 6.70	82
O=C(O)c1cc(C#Cc2ccc(OCc3c(-c4c(Cl)cccc4Cl)noc3C3CC3)cc2Cl)c2ccn(Cc3ccncc3)c2c1 [Compound I-94, 4-((2-chloro-4-((5-cyclopropyl-3-(2,6-dichlorophenyl)isoxazol-4-yl)methoxy)phenyl)ethynyl)-1-(pyridin-4-ylmethyl)-1H-indole-6-carboxylic acid]	6.70 to 7.22	> 100
O=C(O)c1cc(C#Cc2ccc(OCc3c(-c4c(Cl)cccc4Cl)noc3C3CC3)cc2Cl)c2ccn(CCN3CCOCC3)c2c1 [Compound I-95, 4-((2-chloro-4-((5-cyclopropyl-3-(2,6-dichlorophenyl)isoxazol-4-yl)methoxy)phenyl)ethynyl)-1-(2-morpholinoethyl)-1H-indole-6-carboxylic acid hydrochloride]	7.22 to 7.70	> 100
COC(Cn1ccc2c(C#Cc3ccc(OCc4c(-c5c(Cl)cccc5Cl)noc4C4CC4)cc3Cl)cc(C(=O)O)cc21)OC [Compound I-96, 4-((2-chloro-4-((5-cyclopropyl-3-(2,6-dichlorophenyl)isoxazol-4-yl)methoxy)phenyl)ethynyl)-1-(2,2-dimethoxyethyl)-1H-indole-6-carboxylic acid]	≥ 7.70	98

More lines, now with the values ahead:

pEC50	Emax [%]	SMILES
7.22 to 7.70	> 100	O=C(O)c1cc(I)cc(C#Cc2ccc(OCc3c(-c4c(Cl)cccc4Cl)noc3C3CC3)cc2Cl)c1 [Compound I-67, 3-((2-chloro-4-((5-cyclopropyl-3-(2,6-dichlorophenyl)isoxazol-4-yl)methoxy)phenyl)ethynyl)-5-iodobenzoic acid]
6.00 to 6.70	> 100	CCNC(=O)Nc1cc(C#Cc2ccc(OCc3c(-c4c(Cl)cccc4Cl)noc3C3CC3)cc2Cl)cc(C(=O)O)c1 [Compound I-72, 3-((2-chloro-4-((5-cyclopropyl-3-(2,6-dichlorophenyl)isoxazol-4-yl)methoxy)phenyl)ethynyl)-5-(3-ethylureido)benzoic acid]
6.00 to 6.70	> 100	CC(=O)Nc1cc(C#Cc2ccc(OCc3c(-c4c(Cl)cccc4Cl)noc3C3CC3)cc2Cl)cc(C(=O)O)c1 [Compound I-73, 3-acetamido-5-((2-chloro-4-((5-cyclopropyl-3-(2,6-dichlorophenyl)isoxazol-4-yl)methoxy)phenyl)ethynyl)benzoic acid]
≥ 7.70	> 100	CCOC(=O)Nc1cc(C#Cc2ccc(OCc3c(-c4c(Cl)cccc4Cl)noc3C3CC3)cc2Cl)cc(C(=O)O)c1 [Compound I-74, 3-((2-chloro-4-((5-cyclopropyl-3-(2,6-dichlorophenyl)isoxazol-4-yl)methoxy)phenyl)ethynyl)-5-((ethoxycarbonyl)amino)benzoic acid]
≥ 7.70	> 100	O=C(Nc1cc(C#Cc2ccc(OCc3c(-c4c(Cl)cccc4Cl)noc3C3CC3)cc2Cl)cc(C(=O)O)c1)OC1CC1 [Compound I-76, 3-((2-chloro-4-((5-cyclopropyl-3-(2,6-dichlorophenyl)isoxazol-4-yl)methoxy)phenyl)ethynyl)-5-((cyclopropoxycarbonyl)amino)benzoic acid]
6.00 to 6.70	> 100	O=C(Nc1cc(C#Cc2ccc(OCc3c(-c4c(Cl)cccc4Cl)noc3C3CC3)cc2Cl)cc(C(=O)O)c1)OCCO [Compound I-81, 3-((2-chloro-((5-cyclopropyl-3-(2,6-dichlorophenyl)isoxazol-4-yl)methoxy)phenyl)ethynyl)-5-(((2-hydroxyethoxy)carbonyl)amino)benzoic acid]
6.00 to 6.70	98	O=C(O)c1cc(C#Cc2ccc(OCc3c(-c4c(Cl)cccc4Cl)noc3C3CC3)cc2Cl)cc(C(=O)O)c1 [Compound I-84, 5-((2-chloro-4-((5-cyclopropyl-3-(2,6-dichlorophenyl)isoxazol-4-yl)methoxy)phenyl)ethynyl)isophthalic acid]
6.70 to 7.22	100	CS(=O)(=O)Nc1cc(C#Cc2ccc(OCc3c(-c4c(Cl)cccc4Cl)noc3C3CC3)cc2Cl)cc(C(=O)O)c1 [Compound I-86, 3-((2-chloro-4-((5-cyclopropyl-3-(2,6-dichlorophenyl)isoxazol-4-yl)methoxy)phenyl)ethynyl)-5-(methylsulfonamido)benzoic acid]
